This experiment addresses T1, human recombinant CRF-1 receptor (Homo sapiens, UniProt P34998).
T1 construct: expressed in transfected cells; host or cells: CHO cells (G418-selected)
T1 sequence (P34998 24-415): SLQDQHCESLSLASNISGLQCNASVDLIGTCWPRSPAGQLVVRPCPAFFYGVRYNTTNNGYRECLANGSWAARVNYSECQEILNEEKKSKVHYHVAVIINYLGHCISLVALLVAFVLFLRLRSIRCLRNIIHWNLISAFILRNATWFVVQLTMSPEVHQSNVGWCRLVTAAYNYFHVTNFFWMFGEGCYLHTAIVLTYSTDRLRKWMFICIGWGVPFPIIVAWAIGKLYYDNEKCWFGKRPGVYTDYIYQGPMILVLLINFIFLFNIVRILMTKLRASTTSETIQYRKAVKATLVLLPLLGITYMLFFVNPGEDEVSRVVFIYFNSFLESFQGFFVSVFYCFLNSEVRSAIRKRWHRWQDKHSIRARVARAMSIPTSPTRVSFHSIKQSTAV
Put plainly: CRF-1 receptor antagonism, HTRF cAMP assay in CHO cells in the presence of 1 nM CRF. To be noted: CHO cells expressing human recombinant CRF-1; inhibition of the effect of 1 nM CRF on cAMP. In kind it is cell-based. As for the experimental part:
The CRF-1 or CRF-2α receptor antagonistic activity of the agents of the invention has been determined in vitro in the following assay:
Chinese hamster ovary (CHO) cells expressing either the human recombinant CRF-1 or CRF-2a receptors (Chen et al., Proc Natl Acad Sci USA 90, 8967-8971, 1993; Liaw et al., Endocrinology 137, 72-77, 1996) are propagated in Dulbecco's modified Eagle medium supplemented with 10% foetal calf serum, non-essential amino acids, 100 U/ml penicillin, 100 mg/l streptomycin and 1 g/l geneticin (G418). For cyclic AMP determinations the Homogeneous Time-Resolved Fluoresce (HTRF) cAMP dynamic 2 kit (Cisbio International, France) was used as per manufacturers' instructions. CHO cells, previously cryopreserved, were thawed, centrifuged for 7 mins at 1200 rpm and resuspended in serum free media, then pipetted out onto clear bottomed black tissue culture treated 384-well microtitre plates (Corning Inc, US) at 2,000 cells per well. Compounds of the invention, prepared in DMSO, and subsequently diluted 50 fold in assay buffer (1× Hanks balanced salt solution, 0.2% (w/v) bovine serum albumin, 1.7 mM isobutylmethylxanthine and 10 mM Hepes, pH 7.4) are then added onto the cell containing plate where a further 2 fold dilution is performed and incubated for 15 min. Following incubation, buffer containing a 5 times final concentration of agonist is added to the plate and incubated for 30 min. Finally, d2 dye labelled cAMP and cryptate labeled anti-cAMP antibody, both made in lysis buffer, are added to the plate followed by a settling period of 1 hour. During the settling period cAMP produced by the cells competes with the d2 labelled cAMP for the anti-cAMP cryptate. The plate is read on the Pherastar (BMG, Germany). Increasing levels of endogenous cAMP produced by cells can be followed by a decrease of fluorescent signal and vice versa. Values represented by a change in arbitrary fluorescence units are converted into cAMP concentrations by use of a standard curve the reagents for which are supplied with the kit. Antagonist dose response curves (1 nM-30 μM) are constructed in the presence of 1 nM CRF. IC50 values of antagonists are calculated by fitting the percent inhibition of the effect of CRF by increasing concentrations of the antagonists. The fit is performed using the nonlinear logistic function of the Activitybase software package v 5.4.5.27 (IDBS, UK).
In general terms: Time-resolved FRET reads energy transfer from a long-lived donor to a nearby acceptor.

The structures appear in SMILES notation.

As a reminder, the IC50 is the concentration at which inhibition is half-maximal. For `O=C(N[C@H]1CC[C@@H](CNc2cc(-c3ccc(F)cc3)n[nH]2)CC1)c1cc(C(F)(F)F)ccc1Cl` [Example 14, Cis-2-Chloro-N-(4-{[5-(4-fluoro-phenyl)-2H-pyrazol-3-ylamino]-methyl}-cyclohexyl)-5-trifluoromethyl-benzamide], the IC50 amounted to 3230 nM.

For `Cc1ccncc1NC[C@H]1CC[C@@H](NC(=O)c2cc(C(F)(F)F)ccc2Cl)CC1` [Example 14.1, Cis-2-chloro-N-((1s,4s)-4-((4-methylpyridin-3-ylamino)methyl)cyclohexyl)-5-(trifluoromethyl)benzamide], the half-maximal inhibitory concentration (IC50) was determined as 2200 nM.

`CC(Nc1ccccc1)[C@H]1CC[C@H](NC(=O)c2cc(C(F)(F)F)ccc2Cl)CC1` (stereo partly drawn) [Example 15, Trans-2-Chloro-N-[4-(1RS-phenylamino-ethyl)-cyclohexyl]-5-trifluoromethyl-benzamide]: the IC50 is 108 nM.

For the compound `Cc1ncc(Cl)cc1C(=O)N[C@H]1CC[C@H](Cn2nc(C)c(Cl)c2C)CC1` [Example 17, Trans-5-Chloro-N-[4-(4-chloro-3,5-dimethyl-pyrazol-1-ylmethyl)-cyclohexyl]-2-methyl-nicotinamide], the IC50 was 70 nM.

For the compound `Cc1ncc(Cl)cc1C(=O)N[C@H]1CC[C@H](Cn2nc(C)c(C)c2C)CC1` [Example 18, Trans-5-Chloro-2-methyl-N-[4-(3,4,5-trimethyl-pyrazol-1-ylmethyl)-cyclohexyl]-nicotinamide], the IC50 turned out to be 577 nM.

As for `O=C(N[C@H]1CC[C@H](CNc2cncc(F)c2)CC1)c1cc(C(F)(F)F)ccc1Cl` [Example 19.1, Trans-2-chloro-N-(4-((5-fluoropyridin-3-ylamino)methyl)cyclohexyl)-5-(trifluoromethyl) benzamide], the IC50 is 26 nM.

Regarding `O=C(N[C@H]1CC[C@H](CNc2ccc(F)cn2)CC1)c1cc(C(F)(F)F)ccc1Cl` [Example 19.2, Trans-2-chloro-N-(4-((5-fluoropyridin-2-ylamino)methyl)cyclohexyl)-5-(trifluoromethyl) benzamide], the IC50 came to 23 nM.

As to `Cc1cc(NC[C@H]2CC[C@H](NC(=O)c3cc(C(F)(F)F)ccc3Cl)CC2)ncc1F` [Example 19.26, Trans-2-chloro-N-(4-((5-fluoro-4-methylpyridin-2-ylamino)methyl)cyclohexyl)-5-(trifluoromethyl) benzamide], the IC50 amounted to 13 nM.

`O=C(N[C@H]1CC[C@H](CNc2n[nH]c3c2CCCC3)CC1)c1cc(C(F)(F)F)ccc1Cl` [Example 19.49, Trans-2-chloro-N-(4-((4,5,6,7-tetrahydro-1H-indazol-3-ylamino)methyl)cyclohexyl)-5-(trifluoromethyl) benzamide]: the IC50 was 31 nM.

For the compound `CCc1cncc(NC[C@H]2CC[C@H](NC(=O)c3cc(C(F)(F)F)ccc3Cl)CC2)c1` [Example 19.53, Trans-2-chloro-N-(4-((5-ethylpyridin-3-ylamino)methyl)cyclohexyl)-5-(trifluoromethyl) benzamide], the IC50 amounted to 28 nM.

`Cc1cc(NC[C@H]2CC[C@H](NC(=O)c3cc(Cl)cnc3C)CC2)ncc1F` [Example 19.54, Trans-5-chloro-N-(4-((5-fluoro-4-methylpyridin-2-ylamino)methyl)cyclohexyl)-2-methylnicotinamide]: the IC50 turned out to be 62 nM.

On to `Cc1ncc(Cl)cc1C(=O)N[C@H]1CC[C@H](CNc2n[nH]c3c2CCCC3)CC1` [Example 19.55, Trans-5-chloro-2-methyl-N-(4-((4,5,6,7-tetrahydro-1H-indazol-3-ylamino)methyl)cyclohexyl) nicotinamide], for which the half-maximal inhibitory concentration (IC50) came out at 143 nM.

Regarding `COc1ncc(C)cc1NC[C@H]1CC[C@H](NC(=O)c2cc(C(F)(F)F)ccc2Cl)CC1` [Example 19.56, Trans-2-chloro-N-(4-((2-methoxy-5-methylpyridin-3-ylamino)methyl)cyclohexyl)-5-(trifluoromethyl) benzamide], the IC50 amounted to 84 nM.

With `O=C(N[C@H]1CC[C@H](CNc2n[nH]c3ncccc23)CC1)c1cc(C(F)(F)F)ccc1Cl` [Example 19.57, Trans-N-(4-((1H-pyrazolo[3,4-b]pyridin-3-ylamino)methyl)cyclohexyl)-2-chloro-5-(trifluoromethyl) benzamide], the IC50 worked out at 88 nM.

Turning to `Cc1ccc2[nH]nc(NC[C@H]3CC[C@H](NC(=O)c4cc(C(F)(F)F)ccc4Cl)CC3)c2c1` [Example 19.59, Trans-2-chloro-N-(4-((5-methyl-1H-indazol-3-ylamino)methyl)cyclohexyl)-5-(trifluoromethyl) benzamide], the IC50 is 87 nM.

On to `O=C(N[C@H]1CC[C@H](CNc2n[nH]c3ccc(F)cc23)CC1)c1cc(C(F)(F)F)ccc1Cl` [Example 19.62, Trans-2-chloro-N-(4-((5-fluoro-1H-indazol-3-ylamino)methyl)cyclohexyl)-5-(trifluoromethyl) benzamide], for which the IC50 was 90 nM.

Turning to `O=C(N[C@H]1CC[C@H](CNc2n[nH]c3cccc(F)c23)CC1)c1cc(C(F)(F)F)ccc1Cl` [Example 19.63, Trans-2-chloro-N-(4-((4-fluoro-1H-indazol-3-ylamino)methyl)cyclohexyl)-5-(trifluoromethyl) benzamide], the IC50 stood at 17 nM.

Consider `Cc1cccc2[nH]nc(NC[C@H]3CC[C@H](NC(=O)c4cc(C(F)(F)F)ccc4Cl)CC3)c12` [Example 19.65, Trans-2-chloro-N-(4-((4-methyl-1H-indazol-3-ylamino)methyl)cyclohexyl)-5-(trifluoromethyl) benzamide], for which the IC50 worked out at 53 nM.

Consider `O=C(N[C@H]1CC[C@H](CNc2n[nH]c3ccc(Cl)cc23)CC1)c1cc(C(F)(F)F)ccc1Cl` [Example 19.66, Trans-2-chloro-N-(4-((5-chloro-1H-indazol-3-ylamino)methyl)cyclohexyl)-5-(trifluoromethyl) benzamide], for which the half-inhibitory concentration (IC50) was determined as 62 nM.

Regarding `COc1ccc2c(NC[C@H]3CC[C@H](NC(=O)c4cc(C(F)(F)F)ccc4Cl)CC3)n[nH]c2c1` [Example 19.68, Trans-2-chloro-N-(4-((6-methoxy-1H-indazol-3-ylamino)methyl)cyclohexyl)-5-(trifluoromethyl) benzamide], the IC50 is 32 nM.

`Cc1cc(NC[C@H]2CC[C@H](NC(=O)c3cc(C(F)(F)F)ccc3Cl)CC2)ncc1Cl` [Example 19.69, Trans-2-chloro-N-(4-((5-chloro-4-methylpyridin-2-ylamino)methyl)cyclohexyl)-5-(trifluoromethyl) benzamide]: the IC50 is 22 nM.

Turning to `Cn1nc(NC[C@H]2CC[C@H](NC(=O)c3cc(C(F)(F)F)ccc3Cl)CC2)c2ccccc21` [Example 19.70, Trans-2-chloro-N-(4-((1-methyl-1H-indazol-3-ylamino)methyl)cyclohexyl)-5-(trifluoromethyl) benzamide], the IC50 worked out at 29 nM.

As to `Cc1n[nH]c(NC[C@H]2CC[C@H](NC(=O)c3cc(C(F)(F)F)ccc3Cl)CC2)c1-c1ccccc1` [Example 19.71, Trans-2-chloro-N-(4-((3-methyl-4-phenyl-1H-pyrazol-5-ylamino)methyl)cyclohexyl)-5-(trifluoromethyl) benzamide], the IC50 turned out to be 140 nM.

With `Cc1ncc(Cl)cc1NC[C@H]1CC[C@H](NC(=O)c2cc(C(F)(F)F)ccc2Cl)CC1` [Example 19.73, Trans-2-chloro-N-(4-((5-chloro-2-methylpyridin-3-ylamino)methyl)cyclohexyl)-5-(trifluoromethyl) benzamide], the IC50 worked out at 19 nM.

The values above are taken from patent US8273900B2, “Organic compounds” (Novartis AG, priority 2008, dated 2012).
